Blank lines part the entries; values can stand above or below the molecule they belong to. Active and inactive are the calls of the source.
Key:
[1] = Luminescence Cell-Based Dose Retest to Confirm Inhibitors of Cancer Stem Cells. [Related pubchem assays (depositor defined):AID2717, AID2721]; type: functional; conditions: Homo sapiens
[2] = cytotoxicity in HMLE control line with eGFP shRNA, dose response, counter-screen for HMLE_sh_ECad selective toxicity project, cell-based, HMLE_sh_eGFP, luminescence (AID 463074); type: functional, Homo sapiens;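 further: HMLE human mammary epithelial cells expressing control shRNA against eGFP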
[3] = target: T1, Runt-related transcription factor 1/Core-binding factor subunit beta (Homo sapiens, UniProt Q01196+Q13951); test: inhibitors of RUNX1 Runt–CBFb-SMMHC binding, primary screen, biochemical, FRET, Cerulean-Runt, Venus-CBFb-SMMHC, uHTS (AID 1434); type: protein assay;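 further: partner is the CBFb-SMMHC leukemia fusion protein rather than wild-type CBFb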
T1 sequence (Q01196 whole entry, the tested form may be a part): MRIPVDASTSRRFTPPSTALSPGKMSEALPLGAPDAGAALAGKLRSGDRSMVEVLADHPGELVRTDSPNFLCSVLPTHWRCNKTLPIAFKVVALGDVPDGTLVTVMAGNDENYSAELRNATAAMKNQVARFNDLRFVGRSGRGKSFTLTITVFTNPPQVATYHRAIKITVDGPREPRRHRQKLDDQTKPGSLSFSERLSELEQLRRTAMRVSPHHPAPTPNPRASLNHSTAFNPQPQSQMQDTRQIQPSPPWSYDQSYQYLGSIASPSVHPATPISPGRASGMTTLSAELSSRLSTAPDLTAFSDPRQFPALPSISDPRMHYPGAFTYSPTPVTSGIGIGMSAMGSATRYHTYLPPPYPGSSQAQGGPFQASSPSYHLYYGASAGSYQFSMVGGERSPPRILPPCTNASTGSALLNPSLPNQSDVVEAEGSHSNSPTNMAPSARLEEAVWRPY
T1 sequence (Q13951 whole entry, the tested form may be a part): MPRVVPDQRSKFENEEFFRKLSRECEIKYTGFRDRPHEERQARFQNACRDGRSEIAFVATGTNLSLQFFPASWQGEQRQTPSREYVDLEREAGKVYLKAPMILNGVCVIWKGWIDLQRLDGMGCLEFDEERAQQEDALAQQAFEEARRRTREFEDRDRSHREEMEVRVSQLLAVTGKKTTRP

[4] = target: T1, Runt-related transcription factor 1/Core-binding factor subunit beta; test: inhibitors of RUNX1 Runt–CBFb-SMMHC binding, biochemical, TR-FRET (AID 1438); type: protein assay
[5] = target: Intestinal-type alkaline phosphatase (Mus musculus, UniProt P24822); test: PubChem AID 488874; type: functional
Intestinal-type alkaline phosphatase (Mus musculus, UniProt P24822), sequence (P24822 whole entry): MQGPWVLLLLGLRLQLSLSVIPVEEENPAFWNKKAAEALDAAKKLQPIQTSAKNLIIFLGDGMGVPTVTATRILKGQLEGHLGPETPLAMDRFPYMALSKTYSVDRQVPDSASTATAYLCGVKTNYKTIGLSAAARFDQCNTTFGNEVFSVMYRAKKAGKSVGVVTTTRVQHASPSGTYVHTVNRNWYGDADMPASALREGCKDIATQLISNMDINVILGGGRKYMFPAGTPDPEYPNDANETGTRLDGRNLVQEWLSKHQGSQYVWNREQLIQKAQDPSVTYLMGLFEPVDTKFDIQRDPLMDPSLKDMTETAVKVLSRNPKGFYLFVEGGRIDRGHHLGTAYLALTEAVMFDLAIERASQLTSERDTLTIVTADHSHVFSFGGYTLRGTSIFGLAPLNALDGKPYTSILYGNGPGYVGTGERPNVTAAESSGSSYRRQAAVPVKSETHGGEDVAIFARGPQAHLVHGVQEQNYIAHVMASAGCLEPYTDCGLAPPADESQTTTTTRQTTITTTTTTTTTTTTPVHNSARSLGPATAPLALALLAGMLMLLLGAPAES

[6] = target: T2, Intestinal-type alkaline phosphatase (Homo sapiens, UniProt P09923); test: human intestinal alkaline phosphatase activators, dose response, biochemical, luminescence, uHTS hits (AID 463120); type: functional
T2 sequence (P09923 whole entry): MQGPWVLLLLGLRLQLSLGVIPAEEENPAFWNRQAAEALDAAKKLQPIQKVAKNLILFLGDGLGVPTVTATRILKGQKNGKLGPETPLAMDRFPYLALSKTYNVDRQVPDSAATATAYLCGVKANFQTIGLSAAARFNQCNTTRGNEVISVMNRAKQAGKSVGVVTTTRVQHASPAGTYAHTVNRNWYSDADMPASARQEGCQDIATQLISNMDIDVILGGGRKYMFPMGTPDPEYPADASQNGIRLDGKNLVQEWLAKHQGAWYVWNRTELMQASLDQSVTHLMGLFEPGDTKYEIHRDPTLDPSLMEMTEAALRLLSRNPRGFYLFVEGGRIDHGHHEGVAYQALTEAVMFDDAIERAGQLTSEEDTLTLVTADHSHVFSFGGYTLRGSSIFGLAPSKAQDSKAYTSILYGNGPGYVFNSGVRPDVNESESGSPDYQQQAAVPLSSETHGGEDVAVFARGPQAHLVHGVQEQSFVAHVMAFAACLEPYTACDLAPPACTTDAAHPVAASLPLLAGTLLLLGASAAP

[7] = target: T2, Intestinal-type alkaline phosphatase; test: human IAP activators, dose response, biochemical, luminescent, uHTS hits, set 2 (AID 488817); type: functional;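 further: potency of activators that raise enzyme activity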
[8] = target: T3, Alkaline phosphatase, tissue-nonspecific isozyme (Homo sapiens, UniProt P05186); test: TNAP enzyme activators, dose response, selectivity assay for human IAP activator project, biochemical, TNAP isozyme, human IAP uHTS hits (AID 488886); type: functional;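 further: potency of compounds raising TNAP activity as a selectivity check on IAP activators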
T3 sequence (P05186 whole entry): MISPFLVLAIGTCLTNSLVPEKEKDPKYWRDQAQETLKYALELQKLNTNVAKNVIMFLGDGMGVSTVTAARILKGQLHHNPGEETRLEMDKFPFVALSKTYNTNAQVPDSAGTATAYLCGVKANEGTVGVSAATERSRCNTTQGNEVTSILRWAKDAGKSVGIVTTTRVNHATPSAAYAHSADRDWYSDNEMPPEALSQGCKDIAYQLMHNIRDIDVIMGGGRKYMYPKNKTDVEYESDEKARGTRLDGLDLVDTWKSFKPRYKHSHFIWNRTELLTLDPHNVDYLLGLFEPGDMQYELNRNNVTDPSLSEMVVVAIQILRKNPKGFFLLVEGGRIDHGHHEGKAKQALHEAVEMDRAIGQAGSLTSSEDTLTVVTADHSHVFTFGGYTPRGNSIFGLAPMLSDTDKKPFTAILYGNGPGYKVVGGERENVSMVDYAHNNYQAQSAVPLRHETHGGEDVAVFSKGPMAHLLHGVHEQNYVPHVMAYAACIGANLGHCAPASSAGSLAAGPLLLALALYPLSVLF

[9] = target: T4, High affinity choline transporter 1 (Homo sapiens, UniProt Q9GZV3); test: CHT inhibitors, dose response, cell-based, 5-point CRC, membrane potential dye (AID 504840); type: functional
T4 sequence (Q9GZV3 whole entry): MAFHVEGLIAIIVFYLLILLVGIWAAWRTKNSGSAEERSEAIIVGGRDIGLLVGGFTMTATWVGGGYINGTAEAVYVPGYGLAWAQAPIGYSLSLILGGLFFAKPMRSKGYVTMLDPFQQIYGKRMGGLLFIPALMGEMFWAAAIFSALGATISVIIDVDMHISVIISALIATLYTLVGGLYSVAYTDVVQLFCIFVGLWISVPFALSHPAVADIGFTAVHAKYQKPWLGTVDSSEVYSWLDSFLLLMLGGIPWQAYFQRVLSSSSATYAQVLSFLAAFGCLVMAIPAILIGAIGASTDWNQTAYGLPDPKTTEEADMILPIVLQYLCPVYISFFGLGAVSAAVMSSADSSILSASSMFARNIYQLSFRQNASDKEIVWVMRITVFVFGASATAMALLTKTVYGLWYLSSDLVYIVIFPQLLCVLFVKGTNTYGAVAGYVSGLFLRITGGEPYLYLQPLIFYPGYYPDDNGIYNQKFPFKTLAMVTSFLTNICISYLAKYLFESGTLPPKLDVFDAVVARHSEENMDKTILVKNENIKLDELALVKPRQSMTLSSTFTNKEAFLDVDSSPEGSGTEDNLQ

Tumor necrosis factor = Tumor necrosis factor (Homo sapiens, UniProt P01375); test: TNFa-triggered NF-kB activation inhibitors, SAR follow-up, cell-based, revised (AID 2337); type: functional
Tumor necrosis factor, sequence (P01375 whole entry, the tested form may be a part): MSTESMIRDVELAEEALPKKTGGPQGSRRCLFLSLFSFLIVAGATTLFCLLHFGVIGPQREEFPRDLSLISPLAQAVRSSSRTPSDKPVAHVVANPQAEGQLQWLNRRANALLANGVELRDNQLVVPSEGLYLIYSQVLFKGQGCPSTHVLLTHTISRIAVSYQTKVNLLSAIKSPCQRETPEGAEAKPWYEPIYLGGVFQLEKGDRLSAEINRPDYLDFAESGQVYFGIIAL

[10] = target: T5, Nucleotide-binding oligomerization domain-containing protein 1 (Homo sapiens, UniProt Q9Y239); test: NOD1 signaling inhibitors, SAR follow-up, revised (AID 2333); type: functional
T5 sequence (Q9Y239 whole entry): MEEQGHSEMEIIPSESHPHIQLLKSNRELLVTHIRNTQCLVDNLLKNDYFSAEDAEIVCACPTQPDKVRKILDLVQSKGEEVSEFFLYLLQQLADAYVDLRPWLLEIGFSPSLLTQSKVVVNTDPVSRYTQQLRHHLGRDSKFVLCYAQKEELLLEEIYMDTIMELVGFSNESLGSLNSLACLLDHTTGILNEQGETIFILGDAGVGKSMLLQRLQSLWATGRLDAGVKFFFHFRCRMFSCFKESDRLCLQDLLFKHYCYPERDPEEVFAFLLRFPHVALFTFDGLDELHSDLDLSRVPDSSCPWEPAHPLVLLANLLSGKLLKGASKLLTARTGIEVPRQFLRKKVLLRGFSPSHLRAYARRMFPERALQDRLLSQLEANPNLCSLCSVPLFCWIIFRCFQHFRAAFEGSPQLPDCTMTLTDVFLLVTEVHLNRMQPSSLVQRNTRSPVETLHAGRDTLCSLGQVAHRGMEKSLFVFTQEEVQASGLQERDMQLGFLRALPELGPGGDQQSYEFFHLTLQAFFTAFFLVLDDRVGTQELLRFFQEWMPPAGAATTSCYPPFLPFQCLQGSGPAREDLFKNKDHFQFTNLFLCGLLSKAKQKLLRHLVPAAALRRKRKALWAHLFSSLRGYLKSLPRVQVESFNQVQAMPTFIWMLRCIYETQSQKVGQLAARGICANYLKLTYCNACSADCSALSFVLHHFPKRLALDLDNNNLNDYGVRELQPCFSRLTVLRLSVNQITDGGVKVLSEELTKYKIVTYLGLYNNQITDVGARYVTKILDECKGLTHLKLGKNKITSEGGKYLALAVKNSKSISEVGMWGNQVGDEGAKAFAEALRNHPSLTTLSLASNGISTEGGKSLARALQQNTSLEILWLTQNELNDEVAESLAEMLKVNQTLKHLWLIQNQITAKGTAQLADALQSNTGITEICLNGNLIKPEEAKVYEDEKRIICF

[11] = ZM109 Env clade C HIV-1 fusion inhibitors, dose response, HeLa effector, CEM target cells, luciferase, cherry-pick (AID 652058); type: functional, cell-based
[12] = inhibitors of clade B AD8 Env fusion, dose response, cell-based, cherry-pick (AID 652062); type: functional;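 further: luciferase signal from cell-cell fusion driven by HIV-1 clade B AD8 Env; potency is for inhibitors of fusion seen as a drop in luminescence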
[13] = target: T6, COUP transcription factor 2 (Homo sapiens, UniProt P24468); test: Luminescence-based cell-based high throughput dose response assay to identify inhibitors of COUP-TFII (NR2F2).; type: functional;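 further: HEK293 cells transiently cotransfected with COUP-TFII expression vector and reporter; luciferase reporter luminescence driven by COUP-TFII from the pX2-168 reporter plasmid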
T6 sequence (P24468 whole entry): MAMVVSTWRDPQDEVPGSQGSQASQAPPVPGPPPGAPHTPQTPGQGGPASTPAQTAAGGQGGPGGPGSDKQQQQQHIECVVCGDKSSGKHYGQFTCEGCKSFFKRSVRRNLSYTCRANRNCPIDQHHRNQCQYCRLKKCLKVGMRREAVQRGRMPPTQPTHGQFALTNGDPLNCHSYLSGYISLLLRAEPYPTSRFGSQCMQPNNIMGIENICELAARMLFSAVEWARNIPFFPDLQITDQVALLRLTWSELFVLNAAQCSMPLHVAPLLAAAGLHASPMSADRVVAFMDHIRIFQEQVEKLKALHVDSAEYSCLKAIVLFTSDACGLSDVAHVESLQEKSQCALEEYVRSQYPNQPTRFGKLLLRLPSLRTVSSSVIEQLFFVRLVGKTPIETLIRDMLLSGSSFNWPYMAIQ

HEK293 = test: cells; conditions: Homo sapiens;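 further: cells exposed to compound for 14 hours overnight before viability readout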

Compound: CC(=O)c1cccc(NS(=O)(=O)c2cc(-c3cnc(C4CC4)o3)ccc2C)c1
AC50 [1]: 1.03 µM (active)
AC50 [2]: 25 µM (active)

Compound: CCCc1cc2c(OC(=O)CC)c(-c3ccc(C(=O)OCC)o3)c(=O)oc2cc1OC
IC50 [3]: 5.51 µM (active)
IC50 [4]: 7.94 µM (active)

IC50 [5]: 40.9 µM (active)
EC50 [6]: 18.7 µM (active)
EC50 [7]: 17.8 µM (active)
EC50 [8]: 17.2 µM (active)
Compound: CCOc1ccc(CC(=O)NNC(=S)NC2CCCCC2)cc1OCC

IC50 [9]: 18.2 µM (active)
Compound: O=C(c1cccc(OC2CCN(Cc3ccc(F)cc3Cl)CC2)c1)N1CCCC1

Compound: Cc1cc(C(=O)NC2CCCc3c2cnn3-c2ccc(C(C)(C)C)cc2)nn1C (stereo not given)
IC50 (Tumor necrosis factor): 1.44 µM (active)
IC50 [10]: 1.33 µM (active)
AC50 [11]: 1.86 µM (active)
AC50 [12]: 4.61 µM (active)
IC50 [13]: 5.2 µM (active)
IC50 (HEK293): 12.2 µM (active)
